“Also recorded” adds a separate entry of the source. Where two headings read alike, the source gives them in different places.
Experiments:
AChE [1] = target: T1, AChE (Homo sapiens, UniProt P22303); assay: biochemical; conditions: for inhibition at 50 µM: read-out: AChE % inhibition at 50 µM
Description: (§1) Cholinesterase inhibitory activities of all analogs were evaluated spectrometrically using the modified Ellman method as previously reported[40],[41]. […] The absorbance of each well was measured at 415 nm using a microplate reader. IC50 values and inhibition values were calculated with the software GraphPad Prism as the mean of three independent experiments and are expressed as mean ± SEM.

BChE [2] = target: T2, BChE (Homo sapiens, UniProt P06276); assay: BChE inhibition, modified Ellman method; format: biochemical; conditions: for inhibition at 50 µM: read-out: BChE % inhibition at 50 µM
T2 sequence (P06276 29-602): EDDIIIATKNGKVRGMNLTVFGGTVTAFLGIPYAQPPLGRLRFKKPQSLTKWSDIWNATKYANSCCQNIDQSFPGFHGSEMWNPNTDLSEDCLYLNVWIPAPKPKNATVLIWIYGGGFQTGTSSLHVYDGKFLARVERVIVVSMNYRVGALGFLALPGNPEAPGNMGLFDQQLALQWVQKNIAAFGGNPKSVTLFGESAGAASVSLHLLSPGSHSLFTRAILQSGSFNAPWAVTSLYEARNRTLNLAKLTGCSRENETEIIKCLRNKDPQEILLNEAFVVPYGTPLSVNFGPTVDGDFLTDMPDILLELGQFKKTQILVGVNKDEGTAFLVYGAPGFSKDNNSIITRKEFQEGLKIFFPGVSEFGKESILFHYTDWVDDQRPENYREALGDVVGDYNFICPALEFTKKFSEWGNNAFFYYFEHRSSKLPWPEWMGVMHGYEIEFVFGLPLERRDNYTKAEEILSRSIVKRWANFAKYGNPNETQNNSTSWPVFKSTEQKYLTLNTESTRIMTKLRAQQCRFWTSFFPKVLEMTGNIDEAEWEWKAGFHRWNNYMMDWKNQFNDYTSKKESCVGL
Description: as §1

AChE [3] = target: T1, AChE; assay: Enzyme kinetic study of AChE inhibition (Lineweaver-Burk, Ellman's method); format: biochemical
Description: As previously reported, the kinetic study of AChE was carried out at five different concentrations of compound 5l and acetylthiocholine substrate (0.1–1 mM) by Ellman's method.

[4] = system: SH-SY5Y neuroblastoma cell line; assay: MTT toxicity assay on SH-SY5Y; format: cell-based; conditions: 72 h exposure; tested concentrations up to 50 µM
Description: SH-SY5Y cells were maintained in Dulbecco's modified Eagle medium with Ham's F12 medium (DMEM/F12) containing 15% fetal bovine serum100 units/ml penicillin and 100 µg/ml streptomycin. Cells were seeded into flasks containing supplemented medium and maintained at 37 °C in a humidified atmosphere of 5% CO2 and 95% air. Cell viability, virtually the mitochondrial activity of living cells, was measured by quantitative colorimetric assay with MTT, as described previously. MTT reagent, at a final concentration of 0.5 mg/ml, was added to each well at the end of the incubation period, and the plate was placed in a humidified incubator for an additional two h periods. Metabolically active cells convert the yellow MTT tetrazolium compound to a purple formazan product. Then, the insoluble formazan was dissolved with dimethylsulfoxide; colorimetric determination of MTT reduction was measured at 540 nm. Control cells treated media were taken as 100% viability.

AChE [5] = target: T1, AChE; conditions: cited from earlier work
BChE [6] = target: T2, BChE; conditions: cited from earlier work
[7] = 50 µM, mean ± S.E of three to five independent experiments

T1 sequence (P22303 32-614): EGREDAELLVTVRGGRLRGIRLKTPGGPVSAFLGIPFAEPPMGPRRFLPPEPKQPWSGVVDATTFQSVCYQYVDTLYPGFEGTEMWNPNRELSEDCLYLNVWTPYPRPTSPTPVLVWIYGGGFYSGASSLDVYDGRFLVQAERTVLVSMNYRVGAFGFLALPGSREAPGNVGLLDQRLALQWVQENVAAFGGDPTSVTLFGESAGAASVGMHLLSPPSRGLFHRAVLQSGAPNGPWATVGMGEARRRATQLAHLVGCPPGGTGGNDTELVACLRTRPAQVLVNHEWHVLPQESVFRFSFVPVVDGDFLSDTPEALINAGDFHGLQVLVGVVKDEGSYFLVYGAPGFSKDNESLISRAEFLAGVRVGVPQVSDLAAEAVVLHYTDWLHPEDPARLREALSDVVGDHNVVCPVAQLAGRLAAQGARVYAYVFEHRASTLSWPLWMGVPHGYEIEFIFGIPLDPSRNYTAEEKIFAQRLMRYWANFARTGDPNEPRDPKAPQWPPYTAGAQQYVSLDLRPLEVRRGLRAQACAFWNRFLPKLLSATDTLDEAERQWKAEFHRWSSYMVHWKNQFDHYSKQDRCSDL

SMILES | inhibition at 50 µM (AChE [1]; [7]) [%] | inhibition at 50 µM (BChE [2]; [7]) [%] | IC50 (AChE [5]) [nM] | IC50 (BChE [6]) [nM] | further results
N#CC1=C(N)NNC(Nc2ccc(O)cc2)=C([N+](=O)[O-])C12C(=O)Nc1ccc([N+](=O)[O-])cc12 (stereo not drawn) [Compound 5l, 3-amino-7-((4-hydroxyphenyl)amino)-5',6-dinitro-2'-oxo-1,2-dihydrospiro[[1,2]diazepine-5,3'-indoline]-4-carbonitrile] |  |  |  |  | IC50 (AChE [1]): 3980 ± 1070 nM; inhibition at 50 µM (AChE [1]): 87.4 ± 5.93%; inhibition against BChE (in words) (BChE [2]): no significant inhibition; also recorded: inactive; inhibition at 50 µM (BChE [2]): 5.71 ± 2.82%; mode of AChE inhibition (AChE [3]; Lineweaver-Burk plot): mixed mode; also recorded: mix type inhibitor; also recorded: mix-type inhibition; Ki (AChE [3]; five inhibitor concentrations (1, 4, 8, 12, 24 µM), acetylthiocholine 0.1-1 mM, read-out: inhibition constant Ki against AChE): 44 nM; toxicity against SH-SY5Y (MTT cell viability) [4]: no toxicity; also recorded: did not show neurotoxicity
N#CC1=C(N)NNC(Nc2cccc(O)c2)=C([N+](=O)[O-])C12C(=O)Nc1c(C(F)(F)F)cccc12 (stereo not drawn) [Compound 5u, 3-amino-7-((3-hydroxyphenyl)amino)-6-nitro-2'-oxo-7'-(trifluoromethyl)-1,2-dihydrospiro[[1,2]diazepine-5,3'-indoline]-4-carbonitrile] | 16.4 ± 0.53 | 10.4 ± 1.07 |  |  | 
N#CC1=C(N)NNC(Nc2ccc(O)cc2)=C([N+](=O)[O-])C12C(=O)Nc1c(C(F)(F)F)cccc12 (stereo not drawn) [Compound 5v, 3-amino-7-((4-hydroxyphenyl)amino)-6-nitro-2'-oxo-7'-(trifluoromethyl)-1,2-dihydrospiro[[1,2]diazepine-5,3'-indoline]-4-carbonitrile] | 17.7 ± 1.82 | 13 ± 1.14 |  |  | 
O=C1Nc2ccccc2/C1=C\c1cc[n+](Cc2ccccc2Cl)cc1 [compound B] |  |  | 0.44 | 1370 | fold more potent than donepezil (AChE) (AChE [5]; versus donepezil as reference drug): 32 fold
O=C(CC1(O)C(=O)N(Cc2ccccc2)c2ccccc21)c1ccc(Br)cc1Br (stereo not drawn) [compound C] |  |  | 28 ± 3 | 65 ± 8 | 
Cc1ccc(Cn2cc(COc3cccc(C4Nc5ccccc5NC5=C4C(=O)CC(C)(C)C5)c3)nn2)cc1 (stereo not drawn) [compound E] |  |  |  | 200 ± 2 | AChE Inhibition % at 30 μM (AChE [5]; 30 μM): 12.9%

From article PMC10366214, “The anti-Alzheimer potential of novel spiroindolin-1,2-diazepine derivatives as targeted cholinesterase inhibitors with modified substituents” (Scientific Reports, 2023)
